Experimental data taken from patent US20210283099A1, “CDC7 KINASE INHIBITORS AND USES THEREOF” (SLOAN-KETTERING INSTITUTE FOR CANCER RESEARCH, priority 2010, published 2021).
pIC50: −log10 of the molar value.

Key:
Assay in all cases: Cytotoxicity assay (Alamar blue)
Type in all cases: cell-based
[1] = tested on: A549; conditions: Human lung adenocarcinoma, G12S KRAS mutation
Description: (§1) FIGS. 16A-16B. Granaticin A and Granaticin B inhibit multiple tumor types: The indicated cell lines and primary patient samples were tested against the compounds listed in standard cytotoxicity assays (12 point dose response using Alamar blue reduction as an indicator of cell viability). Assays were done in triplicate and IC50 determinations were run in 12-point serial dilutions from […] to 5 nM. […] These include ras and EGFR gatekeeper mutation containing cell lines in addition to p53 mutant cell lines and other known chemotherapy resistant cell lines. Specifically, this included multi-drug resistance phenotype (MDR-overexpressing) cell lines from multiple hematologic and solid tumor cell lines. Table 1 highlights a series of primary patient leukemia samples-both acute and chronic and treatment naïve and refractory tested against granaticins A and B and Derivatives 1 and 2 (see Examples).

[2] = tested on: ALBU; conditions: Homo sapiens, Patient sample of essential thrombocythemia transformed to refractory acute myelogenous leukemia
Description: as §1

[3] = tested on: ALL3; conditions: Human Acute Lymphoblastic leukemia, Philadelphia chromosome positive
Description: as §1

[4] = tested on: CWR22; conditions: human prostate carcinoma
Description: as §1

[5] = tested on: DOGO; conditions: Homo sapiens, Patient sample of CLL with trisomy of chromosome 12 and unmutated Ig heavy chain locus
Description: as §1

[6] = tested on: H11-18; conditions: Human lung adenocarcinoma, L858R EGFR mutation
Description: as §1

[7] = tested on: H1975; conditions: NCI-H1975, Human lung adenocarcinoma, T790M/L858R EGFR mutation, R273H p53 mutation, PTEN null, wild-type KRAS
Description: as §1

[8] = tested on: H23; conditions: NCI-H23, Human lung adenocarcinoma, G12c KRAS mutation, M246I P53 mutation
Description: as §1

[9] = tested on: H3255; conditions: NCI-H3255, Human lung adenocarcinoma, L858R EGFR mutation, wild-type KRAS, wild-type P53
Description: as §1

[10] = tested on: H358; conditions: NCI-H358, Human lung adenocarcinoma, G13C KRAS mutation
Description: as §1

[11] = tested on: H460; conditions: NCI-H460, human large cell lung carcinoma, Q61H KRAS mutation
Description: as §1

[12] = tested on: HCC4011; conditions: Human lung adenocarcinoma, L858R EGFR mutation, wild-type KRAS
Description: as §1

[13] = tested on: HELA N10; conditions: human cervical adenocarcinoma (positive for human papillomavirus infection)
Description: as §1

[14] = tested on: HL60 MX1; conditions: Homo sapiens, MDR variant of HL60 selected with mitoxantrone-clone 1
Description: as §1

[15] = tested on: HL60 MX2; conditions: Homo sapiens, MDR variant of HL60 selected with mitoxantrone-clone 2
Description: as §1

[16] = tested on: HL60 RV; conditions: Homo sapiens, HL-60, MDR variant of HL60 selected with vincristine
Description: as §1

[17] = tested on: HL60; conditions: HL-60, Human Acute Promyelocytic leukemia
Description: as §1

[18] = tested on: HPLD1; conditions: Immortalized human bronchiolar epithelial cell with SV-40 Large T antigen
Description: as §1

[19] = tested on: JABR; conditions: Homo sapiens, Patient sample of relpased/refractory AML with normal cytogenetics and Flt-3 ITD
Description: as §1

[20] = tested on: JAMC; conditions: Homo sapiens, Patient sample of AML with inversion of chromosome 16
Description: as §1

[21] = tested on: JAQU; conditions: Homo sapiens, Patient sample of relapsed/refractory pre-B cell acute lymphoblastic leukemia
Description: as §1

[22] = tested on: JEKO; conditions: Human Mantle Cell Lymphoma
Description: as §1

[23] = tested on: JNDSRCT1; conditions: Human desmoplastic small round cell tumor cell line
Description: as §1

[24] = tested on: JOHO; conditions: Homo sapiens, Patient sample of primary refractory AML with inv3 and monosomy 7 (refractory to allogeneic BMT)
Description: as §1

[25] = tested on: JUCO; conditions: Homo sapiens, Patient sample of pre-B cell ALL with t(4;11) involving the MLL gene
Description: as §1

[26] = tested on: JURKAT E61; conditions: Jurkat E6.1, Human Acute Lymphoblastic T-cell leukemia
Description: as §1

[27] = tested on: MAWI B; conditions: Homo sapiens, Patient sample of secondary chronic myelogenous leukemia
Description: as §1

[28] = tested on: MIHA; conditions: Homo sapiens, Patient sample of relapsed/refractory acute biphenotypic leukemia (refractory to allogeneic bone marrow transplant)
Description: as §1

[29] = tested on: NCEB1; conditions: Human Mantle Cell Lymphoma
Description: as §1

[30] = tested on: OVCAR3; conditions: OVCAR-3, human ovarian adenocarcinoma
Description: as §1

[31] = tested on: RB355; conditions: Human retinoblastoma
Description: as §1

[32] = tested on: RORI; conditions: Homo sapiens, Patient sample of relapsed/refractory AML with trisomy of chromosome #8
Description: as §1

[33] = tested on: SKMEL28; conditions: SK-MEL-28, Human melanoma
Description: as §1

[34] = tested on: Y79; conditions: Human retinoblastoma
Description: as §1

Structure (SMILES)	pIC50 [1]	pIC50 [2]	pIC50 [3]	pIC50 [4]	pIC50 [5]	pIC50 [6]	pIC50 [7]	pIC50 [8]	pIC50 [9]	pIC50 [10]	pIC50 [11]	pIC50 [12]	pIC50 [13]	pIC50 [14]	pIC50 [15]	pIC50 [16]	pIC50 [17]	pIC50 [18]	pIC50 [19]	pIC50 [20]	also measured
CC1OC2CC(O)C1(O)c1c(O)c3c(c(O)c12)C(=O)C1=C(C3=O)[C@H](C)O[C@H]2CC(=O)O[C@@H]12 (some centres unmarked) [Granaticin A, granaticin A]	6.55	6.37	6.85	7.05	6.82	6.38	6.92	6.92	6.68	6.68	6.41	6.85	5.90	6.77	6.96	7.05	6.85	6.74	6.68	7.22	pIC50 [21]: 7.30; pIC50 [22]: 7.40; pIC50 [23]: 7.15; pIC50 [24]: 6.06; pIC50 [25]: 7.10; pIC50 [26]: 7.30; pIC50 [27]: 6.38; pIC50 [28]: 6.52; pIC50 [29]: 6.48; pIC50 [30]: 6.68; pIC50 [31]: 7.05; pIC50 [32]: 5.92; pIC50 [33]: 6.27; pIC50 [34]: 7.22
CC1OC2CC(O[C@H]3CC[C@H](O)[C@H](C)O3)C1(O)c1c(O)c3c(c(O)c12)C(=O)C1=C(C3=O)[C@H](C)O[C@H]2CC(=O)O[C@@H]12 (some centres unmarked) [Granaticin B, granaticin B]	7.05	7.52	7.52	7.40	7.15	7.22	7.52	7.30	7.15	7.30	7.10	7.30	6.01	7.10	7.15	7.15	7.05	7.40	7.30	7.40	pIC50 [21]: 8.00; pIC50 [22]: 7.70; pIC50 [23]: 7.30; pIC50 [24]: 6.77; pIC50 [25]: 8.00; pIC50 [26]: 7.70; pIC50 [27]: 6.80; pIC50 [28]: 7.40; pIC50 [29]: 6.59; pIC50 [30]: 6.96; pIC50 [31]: 7.40; pIC50 [32]: 7.00; pIC50 [33]: 6.47; pIC50 [34]: 7.30
